Data from ChEMBL document CHEMBL1201862, “PubChem BioAssay data set” (2004).
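Compound exposure: 48 hours, 5 concentrations, 96-well plates. The concentration for 50% growth inhibition is given as GI50.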 The source made the active and inactive calls. Cut-off read from the data, not from the text of the source: active = GI50 up to about 1.1 µM and inactive = higher.

Tests used:
Experiment in all cases: NCI anticancer screen, dose series, 48 h
COLO 205 = system: COLO 205
IGROV-1 = system: IGROV-1
SF-295 = system: SF-295
U-251 = system: U-251
786-0 = system: 786-0
UO-31 = system: UO-31
K562 = system: K562
NCI-H226 = system: NCI-H226
SN12C = system: SN12C
SNB-19 = system: SNB-19
KM12 = system: KM12
OVCAR-4 = system: OVCAR-4
SF-268 = system: SF-268
CAKI-1 = system: CAKI-1
M14 = system: M14
HCC 2998 = system: HCC 2998
HCT-15 = system: HCT-15

Row | Compound | GI50 (COLO 205) | GI50 (IGROV-1) | GI50 (SF-295) | GI50 (U-251) | GI50 (786-0) | GI50 (UO-31) | GI50 (K562) | GI50 (NCI-H226) | GI50 (SN12C) | GI50 (SNB-19) | GI50 (KM12) | GI50 (OVCAR-4) | GI50 (SF-268) | GI50 (CAKI-1) | GI50 (M14) | GI50 (HCC 2998) | GI50 (HCT-15)
1 | CCCC(=O)C(CC)/C(CCC(=O)N(Cc1ccccc1)Cc1ccccc1)=N/NC(=O)C[N+](C)(C)C (stereo unspecified) | > 100 µM (inactive) | > 100 µM (inactive) | > 100 µM (inactive) | > 100 µM (inactive) | > 100 µM (inactive) | > 100 µM (inactive) | > 100 µM (inactive) | > 100 µM (inactive) | > 100 µM (inactive) | > 100 µM (inactive) | > 100 µM (inactive) | > 100 µM (inactive) | > 100 µM (inactive) | > 100 µM (inactive) | > 100 µM (inactive) | – | –
2 | Nc1ccc2n[se]nc2c1 | – | > 100 µM (inactive) | > 100 µM (inactive) | > 100 µM (inactive) | > 100 µM (inactive) | > 100 µM (inactive) | > 100 µM (inactive) | – | > 100 µM (inactive) | > 100 µM (inactive) | 48.1 µM (inactive) | > 100 µM (inactive) | > 100 µM (inactive) | > 100 µM (inactive) | > 100 µM (inactive) | > 100 µM (inactive) | > 100 µM
3 | CCCCCCCCCC[C@@H](O)[C@@H]1CC[C@H]([C@H]2CC[C@@H]([C@@H](O)CCCCCCCCCC[C@H]3CC(CC(C)=O)C(=O)O3)O2)O1 (stereo partly specified) | 13.4 µM (inactive) | 12.8 µM (inactive) | – | 15 µM (inactive) | 11.4 µM (inactive) | 1.08 µM (active) | < 0.01 µM (active) | 3.09 µM (inactive) | 10.3 µM (inactive) | 10.4 µM (inactive) | – | < 0.01 µM (active) | 1.62 µM (inactive) | 16.7 µM (inactive) | 11.8 µM (inactive) | 25.5 µM (inactive) | 4.55 µM
4 | CC(SC(=S)Nc1cccc(F)c1)C(=O)O (stereo unspecified) | > 10 µM (inactive) | 3.85 µM (inactive) | 23.9 µM (inactive) | 28.9 µM (inactive) | 34.4 µM (inactive) | 24.9 µM (inactive) | 15.6 µM (inactive) | 20.1 µM (inactive) | 50.7 µM (inactive) | 29.4 µM (inactive) | > 10 µM (inactive) | > 100 µM (inactive) | 13.6 µM (inactive) | 45.8 µM (inactive) | 16.8 µM (inactive) | 30.9 µM (inactive) | 26.1 µM
5 | CC/N=C(/C#N)NCC | 99.3 µM (inactive) | > 100 µM (inactive) | > 100 µM (inactive) | 96.4 µM (inactive) | 63 µM (inactive) | > 100 µM (inactive) | > 100 µM (inactive) | > 100 µM (inactive) | > 100 µM (inactive) | > 100 µM (inactive) | > 100 µM (inactive) | > 100 µM (inactive) | > 100 µM (inactive) | > 100 µM (inactive) | > 100 µM (inactive) | > 100 µM (inactive) | 46.2 µM
6 | C=CCN1C(=O)C(=O)N(CC=C)C(=O)C1=O | > 100 µM (inactive) | > 100 µM (inactive) | > 100 µM (inactive) | > 100 µM (inactive) | > 100 µM (inactive) | > 100 µM (inactive) | > 100 µM (inactive) | > 100 µM (inactive) | > 100 µM (inactive) | > 100 µM (inactive) | > 100 µM (inactive) | > 100 µM (inactive) | > 100 µM (inactive) | > 100 µM (inactive) | > 100 µM (inactive) | > 100 µM (inactive) | > 100 µM
7 | COc1ccc(C(=O)Nc2ccccc2C#N)cc1 | > 100 µM (inactive) | > 100 µM (inactive) | > 100 µM (inactive) | > 100 µM (inactive) | > 100 µM (inactive) | – | > 100 µM (inactive) | – | > 100 µM (inactive) | > 100 µM (inactive) | > 100 µM (inactive) | > 100 µM (inactive) | > 100 µM (inactive) | > 100 µM (inactive) | – | – | > 100 µM
8 | OCCSCC/C(=N\N=C(/CCSCCO)c1ccccc1)c1ccccc1 | > 100 µM (inactive) | > 100 µM (inactive) | 34.4 µM (inactive) | > 100 µM (inactive) | 46.2 µM (inactive) | 91.4 µM (inactive) | 29.9 µM (inactive) | > 100 µM (inactive) | > 100 µM (inactive) | > 100 µM (inactive) | 66.8 µM (inactive) | 61.4 µM (inactive) | > 100 µM (inactive) | 32.1 µM (inactive) | > 100 µM (inactive) | > 100 µM (inactive) | > 100 µM
9 | N=c1c2ccccc2sc2nc3ccccc3n12 | > 100 µM (inactive) | > 100 µM (inactive) | > 100 µM (inactive) | > 100 µM (inactive) | 97.5 µM (inactive) | > 100 µM (inactive) | > 100 µM (inactive) | 57.9 µM (inactive) | > 100 µM (inactive) | > 100 µM (inactive) | > 100 µM (inactive) | 33.9 µM (inactive) | > 100 µM (inactive) | 48.6 µM (inactive) | – | > 100 µM (inactive) | –
